# Data: patent US20210163443A1, “Febrifugine Derivatives” (BRISTOL-MYERS SQUIBB COMPANY, priority 2019, published 2021)
# Counter-ions that a name gives are not always drawn.
# Molecular target: T1, human ProRS (prolyl tRNA synthetase moiety of glutamyl prolyl tRNA synthetase, EPRS) (Homo sapiens, UniProt P07814)
# T1 construct: The prolyl tRNA synthetase moiety (ProRS) in the cDNA of glutamyl prolyl tRNA synthetase was subcloned; 6xHis (N, cleaved yes); made in house; host or cells: E. coli BL21 (DE3)
# T1 sequence (P07814 1007-1512 limits assumed): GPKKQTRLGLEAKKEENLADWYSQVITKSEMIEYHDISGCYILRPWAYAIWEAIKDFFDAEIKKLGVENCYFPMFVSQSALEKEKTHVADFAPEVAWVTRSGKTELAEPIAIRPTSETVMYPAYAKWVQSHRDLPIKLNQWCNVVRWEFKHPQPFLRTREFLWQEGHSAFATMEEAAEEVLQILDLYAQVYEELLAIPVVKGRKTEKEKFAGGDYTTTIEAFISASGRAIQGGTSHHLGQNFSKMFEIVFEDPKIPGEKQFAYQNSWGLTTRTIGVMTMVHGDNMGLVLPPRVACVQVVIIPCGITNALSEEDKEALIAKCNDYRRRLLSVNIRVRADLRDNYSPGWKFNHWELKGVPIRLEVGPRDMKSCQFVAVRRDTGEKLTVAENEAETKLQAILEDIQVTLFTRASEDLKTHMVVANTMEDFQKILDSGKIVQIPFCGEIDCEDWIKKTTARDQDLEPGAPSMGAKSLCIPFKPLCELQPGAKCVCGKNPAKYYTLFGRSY
# Test: Assay for inhibitors of prolyl tRNA synthetase activity (ProRS assay, labeled proline incorporation)
# Assay type: biochemical
# Conditions: human ProRS 20 nM, 10 min at 37° C.; read-out: EPRS IC50
# From the text: In order to establish the activities of the compounds highlighted above, we determined extent of inhibition of prolyl tRNA synthetase activity in dose response curves to obtain IC50 values.
# The prolyl tRNA synthetase moiety (ProRS) in the cDNA of glutamyl prolyl tRNA synthetase was subcloned, tagged with a single biotin, purified and used in the assay.
# Briefly, human ProRS with a 6×N-terminal His tag in pET28N with TVMV BioP was transformed in E. coli BL21 (DE3) cells, selected, overexpressed and purified using a Ni Seph 6 FF XK 16/20 column in the first stage. Ni-NTA eluates were pooled and treated with TVMV protease, and biotinylated using d-Biotin, MgCl2, ATP and the BirA enzyme. This was rerun through a Ni column as before. The eluates were further enriched and purified using membrane ultrafiltration and a SuperDex 200 XK 16/60 column, and peak fractions were confirmed by SDS-PAGE prior to protein amount determination, aliquoting and storage at −80° C. • ProRS assay was performed in 96 well plates in a final reaction volume of 20 μl, using staggered additions of Tris-Cl (pH 7.5, 60 mM), dithiothreitol (2 mM), ATP (5 mM, pH 7.0), MgCl2 6 mM), ProRS (20 nM, with pre-determined active fraction range) and bovine tRNA (20 μg). Controls and compounds, at various concentrations (10 μM to 0.5 nM), were incubated on ice with enzyme mix for 15 min followed by addition of proline (non-labeled and labeled, 3.96 and 1.04 μM (1 μCi) respectively) to initiate the reaction. Reaction was carried out for 10 min at 37° C. and terminated by addition of TCA (10%, 100 μl). Reaction mix was collected on a Whatman GF/B filter using a vacuum filtration manifold. This filter was washed 3 times with 5% TCA followed by 2 washes with ethanol, air dried, and read using a liquid scintillation counter (TopCount NXT) using MicroScint O. IC50 values were calculated and analyzed using ToolSet (4-parameter plot) and depicted herein.
row,IC50,Structure (SMILES)
1,321 nM,"Cc1cc(N2CCCC2)cc2c(=O)n(C[C@@H](O)C[C@H]3NCCC[C@@H]3O)cnc12 [Example 58, 3-{(S)-2-Hydroxy-3-[(2R,3S)-3-hydroxypiperidin-2-yl]propyl}-8-methyl-6-(pyrrolidin-1-yl)quinazolin-4(3H)-one dihydrochloride]"
2,23 nM,"CCc1cc(C)c2ncn(C[C@@H](O)C[C@H]3NCCC[C@@H]3O)c(=O)c2c1 [Example 41, 6-Ethyl-3-{(S)-2-hydroxy-3-[(2R,3S)-3-hydroxypiperidin-2-yl]propyl}-8-methylquinazolin-4(3H)-one hydrochloride]"
3,13 nM,"O=C(C[C@H]1NCCC[C@@H]1O)Cn1cnc2cccc(-c3cccc(C(F)(F)F)c3)c2c1=O [Example 26, 3-{3-[(2R,3S)-3-Hydroxypiperidin-2-yl]-2-oxopropyl}-5-[3-(trifluoromethyl)phenyl]quinazolin-4(3H)-one hydrochloride]"
4,12 nM,"Cc1cc(C2CCOCC2)cc2c(=O)n(CC(=O)C[C@H]3NCCC[C@@H]3O)cnc12 [Example 23, 3-{3-[(2R,3S)-3-Hydroxypiperidin-2-yl]-2-oxopropyl}-8-methyl-6-(tetrahydro-2H-pyran-4-yl)quinazolin-4(3H)-one hydrochloride]"
5,15 nM,"Cc1cc(-c2ccc(F)c(F)c2)cc2c(=O)n(CC(=O)C[C@H]3NCCC[C@@H]3O)cnc12 [Example 22, 6-(3,4-Difluorophenyl)-3-{3-[(2R,3S)-3-hydroxypiperidin-2-yl]-2-oxopropyl}-8-methylquinazolin-4(3H)-one hydrochloride]"
6,183 nM,"Cc1cc(F)cc2c(=O)n(C[C@@H](O)C[C@H]3NCCC[C@@H]3O)cnc12 [Example 34, 6-Fluoro-3-{(S)-2-hydroxy-3-[(2R,3S)-3-hydroxypiperidin-2-yl]propyl}-8-methylquinazolin-4(3H)-one hydrochloride]"
7,> 10000 nM,"Cc1cc(Cl)cc2c(=O)n(C[C@@H]3C[C@@H]4[C@@H](O)CCCN4CO3)cnc12 [Example 72, 6-Chloro-3-{[(3S,4aR,5S)-5-hydroxyhexahydro-1H,3H-pyrido[1,2-c][1,3]oxazin-3-yl]methyl}-8-methylquinazolin-4(3H)-one]"
8,> 10000 nM,"Cc1cc(Cl)cc2c(=O)n(C[C@@H](O)C[C@H]3NCCC[C@@H]3OC(=O)C(C)(C)C)cnc12 [Example 63, (2R,3S)-2-{(S)-3-[6-chloro-8-methyl-4-oxoquinazolin-3(4H)-yl]-2-hydroxypropyl}piperidin-3-ylpivalate hydrochloride]"
9,17 nM,"Cc1cc(C#N)cc2c(=O)n(CC(=O)C[C@H]3NCCC[C@@H]3O)cnc12 [Example 12, 3-{3-[(2R,3S)-3-Hydroxypiperidin-2-yl]-2-oxopropyl}-8-methyl-4-oxo-3,4-dihydroquinazoline-6-carbonitrile hydrochloride]"
10,20 nM,"Cc1cc(OC(F)(F)F)cc2c(=O)n(C[C@@H](O)C[C@H]3NCCC[C@@H]3O)cnc12 [Example 42, 3-{(S)-2-Hydroxy-3-[(2R,3S)-3-hydroxypiperidin-2-yl]propyl}-8-methyl-6-(trifluoromethoxy)quinazolin-4(3H)-one hydrochloride]"
11,> 10000 nM,"COC(=O)N1CCC[C@H](O)[C@H]1C[C@H](O)Cn1cnc2c(C)cc(Cl)cc2c1=O [Example 65, Methyl (2R,3S)-2-((S)-3-(6-chloro-8-methyl-4-oxoquinazolin-3(4H)-yl)-2-hydroxypropyl)-3-hydroxypiperidine-1-carboxylate]"
12,9 nM,"Cc1cc(-c2cccc(F)c2)cc2c(=O)n(CC(=O)C[C@H]3NCCC[C@@H]3O)cnc12 [Example 19, 6-(3-Fluorophenyl)-3-{3-[(2R,3S)-3-hydroxypiperidin-2-yl]-2-oxopropyl}-8-methylquinazolin-4(3H)-one hydrochloride]"
13,20 nM,"Cc1cc(C(F)(F)F)cc2c(=O)n(C[C@@H](O)C[C@H]3NCCC[C@@H]3O)cnc12 [Example 44, 3-{(S)-2-Hydroxy-3-[(2R,3S)-3-hydroxypiperidin-2-yl]propyl}-8-methyl-6-trifluoromethyl)quinazolin-4(3H)-one hydrochloride]"
